In ChEMBL document CHEMBL1129467, “Synthesis and HIV inhibition activity of 2',3'-dideoxy-3'-C-hydroxymethyl nucleosides” (1996):
Values joined by “and” are separate entries in the source; they are usually repeats but may differ in a detail not shown here. Equal values may be shown once.

How the values were obtained:
Assay type in all cases: functional, Homo sapiens
H9 [1] = test: Compound was tested for the cytotoxicity in H-9 cells infected with HIV-IIIB over 14 days
H9 [2] = test: Compound was tested for the cytotoxicity in H-9 cells infected with HIV-IIIB over 7 days
H9 [3] = test: (§1) Compound was tested for the inhibiting acute infection of H9 cells over 7 days at 50 mM
H9 [4] = test: Compound was tested for the inhibiting acute infection of H9 cells over 14 days 1 mM
H9 [5] = test: Compound was tested for the inhibiting acute infection of H9 cells over 7 days at 1 mM
H9 [6] = test: Compound was tested for the effective inhibiting acute infection of H9 cells over 7 days at 50 mM
H9 [7] = test: Compound was Tested for the inhibiting acute infection of H9 cells over 7 days at 1 mM
H9 [8] = test: Compound was tested for the effective inhibiting acute infection of H9 cells over 7 days at 100 mM
H9 [9] = test: as §1; remark: listed apart in the source
H9 [10] = test: Compound was tested for the cytotoxicity in H-9 cells infected with HIV-IIIB over 9 days

| SMILES | P24 concentration (H9 [1]) [ng/mL] | P24 concentration (H9 [2]) [ng/mL] | further results |
| --- | --- | --- | --- |
| CCCCCCOc1ncnc2c1ncn2[C@H]1C[C@H](CO)[C@@H](CO)O1 | 80 | 1 | P24 concentration (H9 [3]): 1 ng/mL and 3 ng/mL; P24 concentration (H9 [4]): 90 ng/mL; P24 concentration (H9 [5]): 2 ng/mL |
| COc1ncnc2c1ncn2[C@H]1C[C@H](CO)[C@@H](CO)O1 | 6 | 12 | P24 concentration (H9 [5]): 80 ng/mL |
| Nc1ncnc2c1ncn2[C@@H]1C[C@H](CO)[C@@H](CO)O1 | 80 | 10 |  |
| OC[C@H]1C[C@H](n2cnc3cncnc32)O[C@@H]1CO | 80 | 8 |  |
| OC[C@H]1C[C@@H](n2cnc3c(Cl)ncnc32)O[C@@H]1CO | 80 | 2 |  |
| COc1ncnc2c1ncn2[C@@H]1C[C@H](CO)[C@@H](CO)O1 | 80 | 5 |  |
| Nc1ncnc2c1ncn2[C@H]1C[C@H](CO)[C@@H](CO)O1 | 2 | 0.5 | P24 concentration (H9 [6]): 100 ng/mL; P24 concentration (H9 [3]): 0.5 ng/mL and 1 ng/mL; P24 concentration (H9 [7]): 6 ng/mL; P24 concentration (H9 [4]): 90 ng/mL; P24 concentration (H9 [8]): 0.1 ng/mL |
| OC[C@H]1C[C@@H](n2cnc3cncnc32)O[C@@H]1CO | 80 | 12 | P24 concentration (H9 [9]): 14 ng/mL; P24 concentration (H9 [3]): 90 ng/mL; P24 concentration (H9 [4]): 90 ng/mL; P24 concentration (H9 [5]): 6 ng/mL |
| CCCCCCOc1ncnc2c1ncn2[C@@H]1C[C@H](CO)[C@@H](CO)O1 | 80 | 4 |  |
| OC[C@H]1C[C@H](n2cnc3c(Cl)ncnc32)O[C@@H]1CO | 80 | 2 |  |
| Cc1cn([C@H]2C[C@H](N=[N+]=[N-])[C@@H](CO)O2)c(=O)[nH]c1=O [ZIDOVUDINE] |  | 100 | P24 concentration (H9 [10]): 600 ng/mL |
